The values below are quoted from earlier work in article PMC10459069, “Comparative Serum and Brain Pharmacokinetics of Quercetin after Oral and Nasal Administration to Rats as Lyophilized Complexes with β-Cyclodextrin Derivatives and Their Blends with Mannitol/Lecithin Microparticles” (Pharmaceutics, 2023).

Molecules are shown by their SMILES.

For data set [1] the following is noted: rats.
On the set-up of data set [2]: method as in PMID 19720149. The note with it: mice, 6-week treatment with Que-enriched diets (2 mg/g diet).
The conditions of data set [3]: reference not given.

On to `O=c1c(O)c(-c2ccc(O)c(O)c2)oc2cc(O)cc(O)c12` [Que, Quercetin], for which the Cmax/dose ratio in data set [1] (intragastric administration of 100 mg/kg of pure Que, ref Yang et al. (2016) 46) was 0.03. The “levels in the brain” value in data set [1] (single oral administration of Que) is “did not reveal measurable levels”. Further, the brain levels in data set [2] was 0.085 µg/g.

By logP is commonly meant the decadic logarithm of the partition coefficient of the neutral form, usually between octanol and water. As for `OC[C@@H](O)[C@@H](O)[C@H](O)[C@H](O)CO` [mannitol, Mannitol], the logP in data set [3] is −3.4.
